Laboratory results published in ChEMBL document CHEMBL5126613, “Novel CA(1-7)M(2-9) Analogs: Synthesis, Characterization, and Antibacterial Evaluation” (ACS Med Chem Lett, 2022).
Converted amounts (≈) assume the structure as drawn. Bridge positions count the residues as written; N and C are the ends. Peptide text beside a SMILES is read from it.

What was measured:
Escherichia coli = assay: Antibacterial activity against Escherichia coli ATCC 25922 assessed as reduction in bacterial growth measured for 18 to 20 hrs by microbroth dilution method; format: functional; details: time 18-20 hrs
Pseudomonas aeruginosa = assay: Antibacterial activity against Pseudomonas aeruginosa ATCC 27853 assessed as reduction in bacterial growth measured for 18 to 20 hrs by microbroth dilution method; format: functional; details: time 18-20 hrs
Staphylococcus aureus = assay: Antibacterial activity against Staphylococcus aureus ATCC 29213 assessed as reduction in bacterial growth measured for 18 to 20 hrs by microbroth dilution method; format: functional; details: time 18-20 hrs
Bacillus subtilis = assay: Antibacterial activity against Bacillus subtilis ATCC 6051 assessed as reduction in bacterial growth measured for 18 to 20 hrs by microbroth dilution method; format: functional; details: time 18-20 hrs
Erythrocyte = assay: Hemolytic activity in sheep RBC assessed as hemolysis at 1000 ug/ml incubated for 30 mins by microplate reader method; format: toxicity, cell-based, Ovis aries; details: 0.5 h, dose 1000 µg/ml
[1] = Hemolytic activity in sheep RBC assessed as 50% hemolysis incubated for 30 mins by microplate reader method; format: toxicity, cell-based, Ovis aries, Erythrocyte; details: sheep red blood cells (erythrocytes)
[2] = (§1) Selectivity index, ratio of HC50 for hemolytic activity in sheep RBC assessed as 50% hemolysis incubated for 30 mins by microplate reader method to MIC for antibacterial activity against Escherichia coli ATCC 25922 assessed as reduction in bacterial growth measured for 18 to 20 hrs by microbroth dilution method; format: toxicity; details: sheep red blood cells (erythrocytes), read-out: Selectivity Index
[3] = as §1, with “Pseudomonas aeruginosa” for “Escherichia coli”, “27853” for “25922”; format: toxicity; details: sheep red blood cells (erythrocytes), read-out: Selectivity Index
[4] = as §1, with “Staphylococcus aureus” for “Escherichia coli”, “29213” for “25922”; format: toxicity; details: sheep red blood cells (erythrocytes), read-out: Selectivity Index
[5] = as §1, with “Bacillus subtilis” for “Escherichia coli”, “6051” for “25922”; format: toxicity; details: sheep red blood cells (erythrocytes), read-out: Selectivity Index
[6] = Hemolytic activity in sheep RBC assessed as hemolysis incubated for 30 mins by microplate reader method; format: toxicity, cell-based, Ovis aries, Erythrocyte; details: sheep red blood cells (erythrocytes), read-out: Activity
Trypsin = Trypsin (Homo sapiens, UniProt P07477+P07478+P35030); assay: Stability of compound assessed as trypsin (unknown origin)-mediated compound degradation measured at 5 mins by LCMS analysis; format: ADME, protein assay

Molecule | MIC (Escherichia coli) [µg/mL] | MIC (Pseudomonas aeruginosa) [µg/mL] | MIC (Staphylococcus aureus) [µg/mL] | MIC (Bacillus subtilis) [µg/mL] | Stability (Trypsin) | Activity (Erythrocyte) | HC50 at 0.5 h [1] [µg/mL] | selectivity ratio at 30 min [2] | selectivity ratio at 30 min [3] | selectivity ratio at 30 min [4] | selectivity ratio at 30 min [5] | hemolysis at 0.5 h [6] [%]
H-RWRLFRRIGAVLRVL-NH2 | 4 | 4 | 8 | 16 |  | Toxic | 230 | 58 | 58 | 29 | 14 | 
CC[C@H](C)[C@H](NC(=O)[C@H](CCCN)NC(=O)[C@H](CCCN)NC(=O)[C@H](Cc1ccccc1)NC(=O)[C@H](CC(C)C)NC(=O)[C@H](CCCN)NC(=O)[C@H](Cc1c[nH]c2ccccc12)NC(=O)[C@@H](N)CCCN)C(=O)NCC(=O)N[C@@H](C)C(=O)N[C@H](C(=O)N[C@@H](CC(C)C)C(=O)N[C@@H](CCCN)C(=O)N[C@H](C(=O)N[C@@H](CC(C)C)C(N)=O)C(C)C)C(C)C | 4 (≈ 2.35 µM) | 8 (≈ 4.71 µM) | 8 (≈ 4.71 µM) | 32 (≈ 18.8 µM) |  |  |  |  |  |  |  | 

Second part, led by results:

MIC (Escherichia coli) [µg/mL] | MIC (Pseudomonas aeruginosa) [µg/mL] | MIC (Staphylococcus aureus) [µg/mL] | MIC (Bacillus subtilis) [µg/mL] | Stability (Trypsin) | Molecule | Activity (Erythrocyte) | HC50 at 0.5 h [1] [µg/mL] | selectivity ratio at 30 min [2] | selectivity ratio at 30 min [3] | selectivity ratio at 30 min [4] | selectivity ratio at 30 min [5] | hemolysis at 0.5 h [6] [%]
4 | 8 | 4 | 32 |  | H-KWRLFKKIGAVLKVL-NH2 |  | 750 | 188 | 94 | 188 | 23 | 10
2 (≈ 1.01 µM) | 16 (≈ 8.1 µM) | 4 (≈ 2.03 µM) | 8 (≈ 4.05 µM) | Stable | CC[C@H](C)[C@@H]1NC(=O)[C@H](CCCCN)NC(=O)[C@H](CCCCN)NC(=O)[C@H](Cc2ccccc2)NC(=O)[C@H](CC(C)C)NC(=O)[C@H](CCCCN)NC(=O)[C@H](Cc2c[nH]c3ccccc23)NC(=O)[C@H](CCCCN)NC(=O)[C@@H](N)CSSC[C@@H](C(N)=O)NC(=O)[C@H](CC(C)C)NC(=O)[C@H](C(C)C)NC(=O)[C@H](CCCCN)NC(=O)[C@H](CC(C)C)NC(=O)[C@H](C(C)C)NC(=O)[C@H](C)NC(=O)CNC1=O (H-CKWKLFKKIGAVLKVLC-NH2; disulfide 1-17) |  | > 1000 | > 500 | > 63 | > 250 | > 125 | 10
4 | 8 | 4 | 32 |  | H-KWKLFKKIGAVLRVL-NH2 |  | 280 | 70 | 35 | 70 | 9 | 10
